16 compounds from US10639382B2, “Method for treating leukemia” (National Guard Health Affairs, priority 2017, dated 2020) can be followed below.

In general, inhibition refers to the relative decrease from the control value, in per cent.

One assay deals with PBMCs from CML patients. Put plainly: Primary screening of FDA approved drug library, TitreGlo/CellTiter-Glo cell viability, PBMCs from CML patients. In kind it is cell-based, human. The settings on record: compound 10 uM, PBMCs from CML patients, average over patients, relative to high control (0%) and no-cell low control (100%); for inhibition at 10 µM: Homo sapiens, PBMC, read-out: % Inhibition, CML Average.

A further assay has as its system PBMCs from CLL patients. Put plainly: Primary screening of FDA approved drug library, TitreGlo/CellTiter-Glo cell viability, PBMCs from CLL patients. Type of assay: cell-based, human. The settings on record: compound 10 uM, PBMCs from CLL patients, average over patients, relative to high control (0%) and no-cell low control (100%); for inhibition at 10 µM: Homo sapiens, PBMC, read-out: % Inhibition, CLL Average. (ATP-based viability assays read luminescence as a measure of living cells.)

In another assay the test system is PBMCs from ALL patients. Nature of the assay: Primary screening of FDA approved drug library, TitreGlo/CellTiter-Glo cell viability, PBMCs from ALL patients. In kind it is cell-based, human. The note with it: compound 10 uM, PBMCs from ALL patients, average over patients, relative to high control (0%) and no-cell low control (100%); for inhibition at 10 µM: Homo sapiens, PBMC, read-out: % Inhibition, ALL Average.

The next assay concerns PBMC from CML patients. Put plainly: Confirmation of positive hits, dose-response TiterGlo growth inhibition, PBMC from CML patients versus healthy controls. Type of assay: cell-based, human. The settings on record: freshly prepared stock from solid, 24 hr incubation. As to the method:
FIG. 2A depicts data of isoproterenol inducing cell death preferentially in chronic myelogenous leukemia (CML) patients' primary PBMC as compared to PBMC from healthy individuals (Control, CTL) when incubated with different concentrations of isoproterenol prepared from liquid stock. FIG. 2B depicts data of isoproterenol inducing cell death preferentially in chronic myelogenous leukemia (CML) patients' primary PBMC as compared to PBMC from healthy individuals (Control, CTL) when incubated with different concentrations of isoproterenol prepared from a solid.

The next assay concerns PBMC from CLL patients. Put plainly: Confirmation of positive hits, dose-response TiterGlo growth inhibition, PBMC from CLL patients versus healthy controls.
The subject of a further assay is PBMCs from AML patients. Nature of the assay: Primary screening of FDA approved drug library, TitreGlo/CellTiter-Glo cell viability, PBMCs from AML patients. The settings on record: compound 10 uM, PBMCs from AML patients, average over patients, relative to high control (0%) and no-cell low control (100%); for inhibition at 10 µM: Homo sapiens, PBMC, read-out: % Inhibition, AML Average. In kind it is cell-based, human.

Where a name gives a salt, the structure may show the parent alone.

Description for PBMC from CLL patients: (§1) Each compound from the ENZO FDA SCREEN-WELL® FDA approved drug library V2 (0.10 μl in 100% DMSO) was transferred to white, 384-well, PS, Cellstar plates (Greiner Bio-One) using the Echo® Liquid Handler (Labcyte Inc.). Each plate contained one column for the High/Low Controls. The Low Control (1% DMSO v/v in column 23, no cells) and the High Control (final 1% DMSO v/v in column 24, with cells) were employed to calculate the Z′ for each assay plate. […] At 24 h post seeding, baseline growth was assessed using a control plate and CellTiter-Glo (CTG) reagent (Promega Corporation). Briefly, 20 μL/well of CTG detection mix was added and plates were read using an EnVision Multimode plate reader (PerkinElmer) after 10 min incubation in the dark. The raw luminescence signal was normalized in ActivityBase XE with outliers in control wells eliminated according to the 3-sigma method to yield percentage of cell viability by using the High Control (HC) containing cells in 1% DMSO v/v (Carl Roth) and the Low Control containing 1% DMSO v/v (Carl Roth). All Medium-Throughput Screening experiments were performed in duplicate for each patient. […] The raw luminescence signal was processed using Graph Pad Prism (Graph Pad Software Inc.) with outliers in control wells eliminated according to the 3-sigma method. The dose-response curves were analyzed using a 4 parameter sigmoidal fit to obtain plausible results in the case non-sigmoidal dose-response curves.
Compound plates were prepared from the same stock used in the original screening and each compound was tested at 16 concentration point with 100 uM being the highest concentration and the dilution factor was ⅓ between two points.
The TitreGlo was performed as described and the curve for growth inhibition was plotted using activity base to calculate the EC50.
Description for PBMCs from ALL patients: (§2) Whole blood was taken from experimental group patients and control group patients. The collected blood was transferred to EDTA tubes with a 5 mL pipette and a pipette aid and then to each EDTA tubes corresponding 50 ml centrifuge tubes. All the blood from one patient was placed into 1 tube (50 mL) and an equal volume of PBS was added to the 50 mL centrifuge tube. The sample was then mixed by either inverting the tube or pipetting up & down. The blood was transferred into tow 50 mL leucosep tube and centrifuged at room temperature (18-20° C.) for 15 minutes at 800×g with the brake turned off and acceleration at 2/deceleration at zero. After centrifugation, the white cell interface (buffy coat) was removed by pasture pipette and transferred to the new appropriately labelled 50 ml centrifuge tube. 25 mL PBS was added to the white cell interface (buffy coat) and the mix was centrifuged for 10 minutes at room temperature at 400×g with the brake off and acceleration at 4 & deceleration at 2. The supernatant was discarded from the pellet carefully in an appropriate manner. The pellet was washed another time with 20 mL by centrifugation for 5 minutes as above. The pellet was re-suspended in 5 mL and cells were counted using V-Cell. The cells were then either used directly as fresh for screening or frozen in liquid nitrogen in 10% DMSO/RPMPI media until use.
(§3) The assay used for TitreGlo (Promega) to measure cell viability based on the ATP production. […] The assay was developed in a 384-well plate with 2500 cell/well in 50 uL total volume. Alternatively, the assay could be developed in a 96-well plate with 10,000 cells/well. […] Z′ as a statistics factor was calculated as follows:
as §1
(§4) The Screen-Well FDA approved drug library was screened, which contains 780 approved drugs. […] The final DMSO concentration in the assay plate was 0.1% of total volume. […] The average of all four control samples was then calculated and used to determine the positive “hits” in patients' samples.
(§5) Each average patient samples were plotted against average of the control samples to identify the positive hits.
Description for PBMCs from AML patients: as §2, §3, §1, §4, §5
Description for PBMCs from CLL patients: as §2, §3, §1, §4, §5
Description for PBMCs from CML patients: as §2, §3, §1, §5
Samples from 4 patients were screened against the FDA approved drug library where the Negative Control (High control) contained cells treated with DMSO and the Positive Control (Low control) were based using no cells. The screening was carried out in 96 well plates. The raw luminescence counts were normalized and the % Inhibition was calculated relative to the high control (0% Inhibition) and the low control (100% Inhibition).

With `CC(C)NCC(O)c1ccc(O)c(O)c1` (racemic) [(±) Isoproterenol HCl], the inhibition at 10 µM came out at 65.3% in the assay on PBMCs from CML patients, 39.9% in the assay on PBMCs from CLL patients and 61.7% with PBMCs from ALL patients. Also, the “EC50 of growth inhibition, times higher in control PBMC compared to PBMC from CML patients” value in the assay on PBMC from CML patients came out at 4.4 times. Further, in the assay with PBMC from CLL patients (freshly prepared stock from solid, 24 hr incubation, TiterGlo), the “EC50 of growth inhibition, times higher in control PBMC compared to PBMC from CLL patients” value was determined as 4.8 times.

Consider `OC(c1cc(C(F)(F)F)nc2c(C(F)(F)F)cccc12)C1CCCCN1` (stereo not shown) [Mefloquine HCl], for which the inhibition at 10 µM with PBMCs from CML patients was determined as 90.4%; in the assay with PBMCs from CLL patients it was 50.5%; in the assay with PBMCs from AML patients, 72.7%; in the assay on PBMCs from ALL patients it was 87.7%.

For `N[C@@H](Cc1ccc(N(CCCl)CCCl)cc1)C(=O)O` [Melphalan], the inhibition at 10 µM in the assay with PBMCs from CML patients was 32.5%; in the assay with PBMCs from CLL patients, 69.6%; with PBMCs from AML patients it was 42.1%; in the assay with PBMCs from ALL patients, 92.9%.

For `C[C@](N)(Cc1ccc(O)c(O)c1)C(=O)O` [Methyldopa], the “Effect on CLL PBMC compared to control cells” value in the assay with PBMC from CLL patients (dose-response, FIG. 3) was “show an effect on CLL PBMC better than control cell”.

Take `Cc1ncc([N+](=O)[O-])n1CCO` [Metronidazole]: the inhibition at 10 µM in the assay with PBMCs from CML patients is -17.3%; in the assay with PBMCs from CLL patients it was 31%; in the assay on PBMCs from AML patients it was -25.2%; in the assay with PBMCs from ALL patients, -23.9%.

Take `Clc1ccc(COC(Cn2ccnc2)c2ccc(Cl)cc2Cl)c(Cl)c1` (stereo not shown) [Miconazole]: the inhibition at 10 µM was 69.9% in the assay with PBMCs from CML patients, -3.3% in the assay on PBMCs from CLL patients, 38.1% in the assay on PBMCs from AML patients and -35.1% with PBMCs from ALL patients.

Regarding `O=C1c2c(O)ccc(O)c2C(=O)c2c(NCCNCCO)ccc(NCCNCCO)c21` [Mitoxantrone HCl], the inhibition at 10 µM with PBMCs from CML patients amounted to 72.6%; in the assay with PBMCs from CLL patients it was 71.1%; in the assay with PBMCs from AML patients it was 68.8%; in the assay with PBMCs from ALL patients, 73.7%.

Turning to `COC(=O)C1=C(C)NC(C)=C(C(=O)OC)C1c1ccccc1[N+](=O)[O-]` [Nifedipine], the inhibition at 10 µM was 4.2% in the assay on PBMCs from CML patients, -10.8% in the assay with PBMCs from CLL patients, 7.9% in the assay with PBMCs from AML patients and 74.3% in the assay on PBMCs from ALL patients.

Take `Cc1cc2c(s1)Nc1ccccc1N=C2N1CCN(C)CC1` [Olanzapine]: the inhibition at 10 µM was 79.5% in the assay on PBMCs from CML patients, -26.5% with PBMCs from CLL patients, 1.8% in the assay on PBMCs from AML patients and 71.8% in the assay on PBMCs from ALL patients. In the assay on PBMC from CLL patients (fresh primary cells, FIG. 4A-4D), the “Induction of cell death in PBMC from CLL patients compared to control cells” value was “shown to induce cell death in PBMC from CLL patients compared to control cells”. For the same compound, in the assay on PBMC from CLL patients (primary cells tested after freezing), the “Effect on PBMC when primary cells are tested after freezing” value was “the effect is not observed”.

Turning to `O=c1[nH]c2ccccc2n1C1CCN(CCCC(c2ccc(F)cc2)c2ccc(F)cc2)CC1` [Pimozide], the inhibition at 10 µM is 69% with PBMCs from CML patients, 39.5% in the assay with PBMCs from CLL patients, 42.3% in the assay on PBMCs from AML patients and 58.8% with PBMCs from ALL patients.

For the compound `COc1cc(NC(C)CCCN)c2ncccc2c1` (stereo not shown) [Primaquine Phosphate], the inhibition at 10 µM was found to be 40.9% in the assay on PBMCs from CML patients, 16.9% in the assay on PBMCs from CLL patients, 19.8% in the assay on PBMCs from AML patients and 54.9% in the assay on PBMCs from ALL patients.

In the case of `CO[C@H]1/C=C/O[C@@]2(C)Oc3c(C)c(O)c4c(O)c(c5c(nc6cc(C)ccn65)c4c3C2=O)NC(=O)/C(C)=C\C=C\[C@H](C)[C@H](O)[C@@H](C)[C@@H](O)[C@@H](C)[C@H](OC(C)=O)[C@@H]1C` [Rifaximin], the inhibition at 10 µM in the assay with PBMCs from CML patients was 42.3%; in the assay on PBMCs from CLL patients, -60.2%; in the assay with PBMCs from AML patients, -42.8%; with PBMCs from ALL patients, -45.4%.

On to `CCN(CC)CCNC(=O)c1c(C)[nH]c(/C=C2\C(=O)Nc3ccc(F)cc32)c1C` [Sunitinib Malate], for which the inhibition at 10 µM in the assay with PBMCs from CML patients amounted to 65.2%; with PBMCs from CLL patients, 40.5%; with PBMCs from AML patients, 56.5%; in the assay on PBMCs from ALL patients, 54.2%.

Regarding `CO[C@H]1C[C@@H]2CC[C@@H](C)[C@@](O)(O2)C(=O)C(=O)N2CCCC[C@H]2C(=O)O[C@H]([C@H](C)C[C@@H]2CC[C@@H](OC(=O)C(C)(CO)CO)[C@H](OC)C2)CC(=O)[C@H](C)/C=C(\C)[C@@H](O)[C@@H](OC)C(=O)[C@H](C)C[C@H](C)/C=C/C=C/C=C/1C` [Temsirolimus], the inhibition at 10 µM in the assay with PBMCs from CML patients was 7%; in the assay with PBMCs from CLL patients it was 26.6%; in the assay on PBMCs from AML patients, 1.6%; in the assay on PBMCs from ALL patients, -6.4%.

Turning to `CSc1ccc2c(c1)N(CCC1CCCCN1C)c1ccccc1S2` (stereo not shown) [Thioridazine HCl], the inhibition at 10 µM is 70.3% with PBMCs from CML patients, -40.9% with PBMCs from CLL patients, 27% with PBMCs from AML patients and 23.1% with PBMCs from ALL patients.

Consider Ivermectin, for which the “% Inhibition, CML Average” value in the assay on PBMCs from CML patients is on record as 79.3%. In addition, the “% Inhibition, CLL Average” value with PBMCs from CLL patients worked out at 66.0%. Also, the “% Inhibition, AML Average” value in the assay with PBMCs from AML patients worked out at 60.2%. The “% Inhibition, ALL Average” value with PBMCs from ALL patients is on record as 70.4%.
